Test results: ChEMBL document CHEMBL4400575, “PROTAC Molecules for the Treatment of Autoimmune Disorders” (ACS Med Chem Lett, 2019)

Molecular target: Protein cereblon (Homo sapiens, UniProt Q96SW2)
Assay: Displacement of (-)-thalidomide-alexa fluor/pomalidomide-fluorescein conjugated probe from […] fused CRBN (unknown origin) measured after 60 mins by fluorescence polarization assay

Protein cereblon, sequence (Q96SW2 whole entry, the tested form may be a part): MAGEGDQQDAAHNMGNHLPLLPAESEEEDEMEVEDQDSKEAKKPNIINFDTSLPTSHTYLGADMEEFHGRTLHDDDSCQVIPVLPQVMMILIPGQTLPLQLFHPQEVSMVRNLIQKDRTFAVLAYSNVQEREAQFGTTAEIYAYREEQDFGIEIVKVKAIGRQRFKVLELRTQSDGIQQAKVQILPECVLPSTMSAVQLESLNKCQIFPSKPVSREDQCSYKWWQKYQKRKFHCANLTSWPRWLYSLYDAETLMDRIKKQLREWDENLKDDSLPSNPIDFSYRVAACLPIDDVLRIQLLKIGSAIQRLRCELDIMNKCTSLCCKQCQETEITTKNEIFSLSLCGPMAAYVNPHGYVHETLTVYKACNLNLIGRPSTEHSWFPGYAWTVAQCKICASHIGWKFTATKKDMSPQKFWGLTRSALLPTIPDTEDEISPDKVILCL

| Kd [µM] | SMILES |
| --- | --- |
| ≤ 10 | CC(=O)CCc1ccc(OC2CCC(=O)NC2=O)cc1 (stereo not drawn) |
| ≤ 10 | CN1CCN(c2ccc(NC3CCC(=O)NC3=O)cc2)CC1 (stereo not drawn) |
| 10 to 50 | O=C1CCC(Nc2ccccc2N2CCOCC2)C(=O)N1 (stereo not drawn) |
| ≤ 10 | Cc1sc2c(c1C)C(c1ccc(Cl)cc1)=N[C@@H](CC(=O)NCCCCCCCCN1CCN(c3ccc(NC4CCC(=O)NC4=O)cc3)CC1)c1nnc(C)n1-2 (stereo partly drawn) |
| ≤ 10 | CC(C)(C)OC(=O)N1CCN(c2ccc(OC3CCC(=O)NC3=O)cc2)CC1 (stereo not drawn) |
| ≤ 10 | N#Cc1ccc(-c2ccc(OC3CCC(=O)NC3=O)cc2)cc1 (stereo not drawn) |
| ≤ 10 | COc1cccc(N(C)C2CCC(=O)NC2=O)c1 (stereo not drawn) |
| ≤ 10 | Cc1nnc2n1-c1ccc(-c3cnn(CCCCCCN4CCN(c5ccc(NC6CCC(=O)NC6=O)cc5)CC4)c3)cc1C(c1ccc(Cl)cc1)=NC21CC1 (stereo not drawn) |
